Experimental findings from patent US20260297092A1, “PYRAZOLOPYRIMIDINE DERIVATIVES AS INHIBITORS OF NLRP3” (Takeda Pharmaceutical Company Limited, priority 2023, published 2026) are described below.

Some results are limits rather than exact numbers.

Broadly, the IC50 is the point on the concentration scale where inhibition reaches its midpoint.

The subject of assay [1] is NLRP3 inflammasome (IL-1β production in THP-1 cells). Briefly: IL-1β TR-FRET Assay (percentage of inhibition at 300 nM, 6 μM or 10 μM). In kind it is cell-based, human. The note with it: LPS priming, ATP activation; for inhibition at 6 µM / inhibition at 0.3 µM: Homo sapiens; for inhibition at 6 µM: THP-1, 6 μM, read-out: IL-1β inhibitory rate at 6 μM (%); for inhibition at 0.3 µM: THP-1, 300 nM, read-out: IL-1β inhibitory rate at 300 nM (%). An outline of the steps: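 THP-1 cells were differentiated with 25 ng/mL IFN-γ for 24 h, primed with 50 ng/mL LPS in serum-free medium for 24 h, then given compound for 30 min before 20 mM ATP for 2 h. Supernatant IL-1β was measured by HTRF after 16-24 h at room temperature. Inhibition was normalized between DMSO (high) and 3 μM MCC-950 (low).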
On the technique in general: Time-resolved FRET reads energy transfer from a long-lived donor to a nearby acceptor.

Assay [2] deals with TNF-α (NF-κB pathway, THP-1 cells). In words: TNF-α Assay (IC50). The note with it: 600 ng/mL LPS, 3 hours. It counts as cell-based, human. Put shortly:
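THP-1 cells differentiated to macrophages with 25 ng/mL IFN for 24 h, plated 40,000/well in serum-free medium, preincubated with compounds 30 min at 37 °C, then stimulated with 600 ng/mL LPS for 3 h. Supernatant TNF-α measured by ELISA; IC50 from four-parameter logistic fit, 100% inhibition defined by TPCA-1.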

As for `Cc1cc(C2CC2)cc(C(F)F)c1-n1cc2c(=O)[nH]c(C3(F)CC3)nc2n1` [Example 319, 2-[4-cyclopropyl-2-(difluoromethyl)-6-methylphenyl]-6-(1-fluorocyclopropyl)-2,5-dihydro-4H-pyrazolo[3,4-d]pyrimidin-4-one], the inhibition at 6 µM in assay [1] worked out at 100%. In assay [2] (Homo sapiens), this compound had a half-maximal inhibitory concentration (IC50) above 30 µM.

Take `Cc1cc(C2CC2)cc(C)c1-n1cc2c(=O)[nH]c(C3CCCO3)nc2n1` (single isomer, unassigned) [Example 227, 2-(4-cyclopropyl-2,6-dimethylphenyl)-6-[(2R)-oxolan-2-yl]-2,5-dihydro-4H-pyrazolo[3,4-d]pyrimidin-4-one or 2-(4-cyclopropyl-2,6-dimethylphenyl)-6-[(2S)-oxolan-2-yl]-2,5-dihydro-4H-pyrazolo[3,4-d]pyrimidin-4-one (HPLC Method A: tR1)]: the “IL-1β inhibitory rate at 300 nM (%)” value in assay [1] (300 nM, 0.3 µM) turned out to be 100%. The compound further returned a concentration for half-maximal inhibition (IC50) in assay [2] (Homo sapiens) above 30 µM.

On to `CCOc1nc2nn(-c3c(C)cc(OC)cc3F)cc2c(=O)[nH]1` [Example 121, 6-ethoxy-2-(2-fluoro-4-methoxy-6-methylphenyl)-2,5-dihydro-4H-pyrazolo[3,4-d]pyrimidin-4-one], for which, in assay [1], the inhibition at 0.3 µM amounted to 97%. Moreover, the IC50 in assay [2] (Homo sapiens) was above 30 µM.

As for `Cc1cc(C)c(-n2cc3c(=O)[nH]c(-c4ccccc4)nc3n2)c(O)c1` [Example 5, 2-(2-hydroxy-4,6-dimethylphenyl)-6-phenyl-2,5-dihydro-4H-pyrazolo[3,4-d]pyrimidin-4-one], in assay [1], the inhibition at 0.3 µM was 99%. The compound further came in with an IC50 in assay [2] (Homo sapiens) above 30 µM.

For the compound `CO[C@@H]1C[C@H]1c1nc2nn(-c3c(C)cc(C4CC4)cc3C)cc2c(=O)[nH]1` (racemic) [Example 265, racemic mixture of 2-(4-cyclopropyl-2,6-dimethylphenyl)-6-[(1R,2S)-2-methoxycyclopropyl]-2,5-dihydro-4H-pyrazolo[3,4-d]pyrimidin-4-one and 2-(4-cyclopropyl-2,6-dimethylphenyl)-6-[(1S,2R)-2-methoxycyclopropyl]-2,5-dihydro-4H-pyrazolo[3,4-d]pyrimidin-4-one], the inhibition at 6 µM in assay [1] stood at 95%. This compound also showed an IC50 in assay [2] (Homo sapiens) above 30 µM.

On to `CCOc1nc2nn(-c3c(F)cc(C)cc3Br)cc2c(=O)[nH]1` [Example 57, 2-(2-bromo-6-fluoro-4-methylphenyl)-6-ethoxy-2,5-dihydro-4H-pyrazolo[3,4-d]pyrimidin-4-one], for which the inhibition at 0.3 µM in assay [1] was determined as 99%. For the same compound, the IC50 in assay [2] (Homo sapiens) was above 30 µM.

Turning to `COc1nc2nn(-c3c(F)cc(C4(F)CC4)cc3Br)cc2c(=O)[nH]1` [Example 204, 2-[2-bromo-6-fluoro-4-(1-fluorocyclopropyl)phenyl]-6-methoxy-2,5-dihydro-4H-pyrazolo[3,4-d]pyrimidin-4-one], the inhibition at 0.3 µM in assay [1] came to 98%. For the same compound, the IC50 in assay [2] (Homo sapiens) was above 30 µM.

For the compound `Cc1cc(C2CC2)cc(C)c1-n1cc2c(=O)[nH]c([C@@]3(F)CCOC3)nc2n1` [Example 289, 2-(4-cyclopropyl-2,6-dimethylphenyl)-6-[(3R)-3-fluorooxolan-3-yl]-2,5-dihydro-4H-pyrazolo[3,4-d]pyrimidin-4-one or 2-(4-cyclopropyl-2,6-dimethylphenyl)-6-[(3S)-3-fluorooxolan-3-yl]-2,5-dihydro-4H-pyrazolo[3,4-d]pyrimidin-4-one], the “IL-1β inhibitory rate at 6 μM (%)” value in assay [1] (6 μM) came out at 101%. Besides, the half-inhibitory concentration (IC50) in assay [2] was above 30 µM.

`COc1ccccc1-c1nc2nn(-c3c(C)cc(C)cc3O)cc2c(=O)[nH]1` [Example 47, 2-(2-hydroxy-4,6-dimethylphenyl)-6-(2-methoxyphenyl)-2,5-dihydro-4H-pyrazolo[3,4-d]pyrimidin-4-one]: the inhibition at 0.3 µM in assay [1] was 98%. Further, the concentration for half-maximal inhibition (IC50) in assay [2] (Homo sapiens) was above 30 µM.

In the case of `CCOc1nc2nn(-c3c(F)cc(C4CC4)cc3Br)cc2c(=O)[nH]1` [Example 114, 2-(2-bromo-4-cyclopropyl-6-fluorophenyl)-6-ethoxy-2,5-dihydro-4H-pyrazolo[3,4-d]pyrimidin-4-one], in assay [1], the inhibition at 0.3 µM came out at 98%. Also, in assay [2] (Homo sapiens), the 50% inhibitory concentration (IC50) is above 30 µM.

`CCOc1nc2nn(-c3ccc(C(F)(F)F)cc3O)c(C)c2c(=O)[nH]1` [Example 59, 6-ethoxy-2-[2-hydroxy-4-(trifluoromethyl)phenyl]-3-methyl-2,5-dihydro-4H-pyrazolo[3,4-d]pyrimidin-4-one]: the inhibition at 0.3 µM in assay [1] stood at 98%. Moreover, the IC50 in assay [2] (Homo sapiens) is above 30 µM.

Regarding `CCOc1nc2nn(-c3c(C)cc(C)cc3O)c(Cl)c2c(=O)[nH]1` [Example 26, 3-chloro-6-ethoxy-2-(2-hydroxy-4,6-dimethylphenyl)-2,5-dihydro-4H-pyrazolo[3,4-d]pyrimidin-4-one], the inhibition at 0.3 µM in assay [1] is 94%. This compound displayed a concentration for half-maximal inhibition (IC50) in assay [2] (Homo sapiens) above 30 µM.

In the case of `Cc1cc(C2CC2)cc(C)c1-n1cc2c(=O)[nH]c(-c3ccncn3)nc2n1` [Example 171, 2-(4-cyclopropyl-2,6-dimethylphenyl)-6-(pyrimidin-4-yl)-2,5-dihydro-4H-pyrazolo[3,4-d]pyrimidin-4-one], the inhibition at 0.3 µM in assay [1] is 100%. The compound further came in with an IC50 in assay [2] (Homo sapiens) above 30 µM.

For the compound `Cc1cc(C2CC2)cc(C)c1-n1cc2c(=O)[nH]c([C@H]3CC3(F)F)nc2n1` [Example 191, 2-(4-cyclopropyl-2,6-dimethylphenyl)-6-(2,2-difluorocyclopropyl)-2,5-dihydro-4H-pyrazolo[3,4-d]pyrimidin-4-one], in assay [1], the inhibition at 0.3 µM worked out at 109%. Besides, in assay [2] (Homo sapiens), the IC50 was above 30 µM.

On to `CCOc1nc2nn(-c3c(C)cc(C4CC4)cc3C)cc2c(=O)[nH]1` [Example 132, 2-(4-cyclopropyl-2,6-dimethylphenyl)-6-ethoxy-2,5-dihydro-4H-pyrazolo[3,4-d]pyrimidin-4-one], for which, in assay [1], the inhibition at 0.3 µM was determined as 99%. In assay [2] (Homo sapiens), this compound returned an IC50 above 30 µM.

For the compound `Cc1ccc(-n2cc3c(=O)[nH]c(OCC(C)OCc4ccccc4)nc3n2)c(C)c1` (racemic) [Example 99, 6-[2-(benzyloxy)propoxy]-2-(2,4-dimethylphenyl)-2,5-dihydro-4H-pyrazolo[3,4-d]pyrimidin-4-one], the inhibition at 0.3 µM in assay [1] came out at 41%. The compound also yielded a half-maximal inhibitory concentration (IC50) in assay [2] (Homo sapiens) above 30 µM.

As to `Cc1cc(C)c(-n2cc3c(=O)[nH]c(-c4ccn(C)n4)nc3n2)c(O)c1` [Example 23, 2-(2-hydroxy-4,6-dimethylphenyl)-6-(1-methyl-1H-pyrazol-3-yl)-2,5-dihydro-4H-pyrazolo[3,4-d]pyrimidin-4-one], the inhibition at 0.3 µM in assay [1] came out at 100%. Also, the IC50 in assay [2] (Homo sapiens) was above 30 µM.

On to `CCc1cc(C2(F)CC2)cc(C)c1-n1cc2c(=O)[nH]c(OC)nc2n1` [Example 301, 2-[2-ethyl-4-(1-fluorocyclopropyl)-6-methylphenyl]-6-methoxy-2,5-dihydro-4H-pyrazolo[3,4-d]pyrimidin-4-one], for which the inhibition at 6 µM in assay [1] came to 98%. Moreover, the 50% inhibitory concentration (IC50) in assay [2] (Homo sapiens) was above 30 µM.

For `CCOc1nc2nn(-c3ccc(C)cc3O)c(Cl)c2c(=O)[nH]1` [Example 31, 3-chloro-6-ethoxy-2-(2-hydroxy-4-methylphenyl)-2,5-dihydro-4H-pyrazolo[3,4-d]pyrimidin-4-one], the inhibition at 0.3 µM in assay [1] was determined as 99%. This compound also came in with a half-inhibitory concentration (IC50) in assay [2] (Homo sapiens) above 30 µM.

In the case of `Cc1cc(C)c(-n2cc3c(=O)[nH]c(-c4cnccn4)nc3n2)c(O)c1` [Example 61, 2-(2-hydroxy-4,6-dimethylphenyl)-6-(pyrazin-2-yl)-2,5-dihydro-4H-pyrazolo[3,4-d]pyrimidin-4-one], the inhibition at 0.3 µM in assay [1] was 100%. For the same compound, the half-inhibitory concentration (IC50) in assay [2] (Homo sapiens) is above 30 µM.

`Cc1cc(C2CC2)cc(C)c1-n1cc2c(=O)[nH]c(C3CC(F)(F)C3)nc2n1` [Example 262, 2-(4-cyclopropyl-2,6-dimethylphenyl)-6-(3,3-difluorocyclobutyl)-2,5-dihydro-4H-pyrazolo[3,4-d]pyrimidin-4-one]: the inhibition at 6 µM in assay [1] worked out at 100%. The compound further came in with an IC50 in assay [2] (Homo sapiens) above 30 µM.

As for `CCOc1nc2nn(-c3ccc(C4CC4)cc3O)c(C)c2c(=O)[nH]1` [Example 48, 2-(4-cyclopropyl-2-hydroxyphenyl)-6-ethoxy-3-methyl-2,5-dihydro-4H-pyrazolo[3,4-d]pyrimidin-4-one], the inhibition at 0.3 µM in assay [1] was found to be 100%. In addition, the IC50 in assay [2] (Homo sapiens) is above 30 µM.

On to `CCOc1nc2nn(-c3c(C)cc(C)cc3C#N)cc2c(=O)[nH]1` [Example 152, 2-(6-ethoxy-4-oxo-4,5-dihydro-2H-pyrazolo[3,4-d]pyrimidin-2-yl)-3,5-dimethylbenzonitrile], for which the inhibition at 0.3 µM in assay [1] stood at 92%. The compound also displayed an IC50 in assay [2] (Homo sapiens) above 30 µM.

With `CCc1nc2nn(-c3c(F)cc(C4CC4)cc3C(F)F)cc2c(=O)[nH]1` [Example 295, 2-[4-cyclopropyl-2-(difluoromethyl)-6-fluorophenyl]-6-ethyl-2,5-dihydro-4H-pyrazolo[3,4-d]pyrimidin-4-one], the inhibition at 6 µM in assay [1] came to 105%. The IC50 in assay [2] (Homo sapiens) is above 30 µM.

With `CCOc1nc2nn(-c3c(C)cc(OC(F)F)cc3CC(F)(F)F)cc2c(=O)[nH]1` [Example 168, 2-[4-(difluoromethoxy)-2-methyl-6-(2,2,2-trifluoroethyl)phenyl]-6-ethoxy-2,5-dihydro-4H-pyrazolo[3,4-d]pyrimidin-4-one], in assay [1], the inhibition at 0.3 µM amounted to 98%. For the same compound, the IC50 in assay [2] (Homo sapiens) is above 30 µM.

As to `Cc1cc(C2CC2)cc(C)c1-n1cc2c(=O)[nH]c(OCC(F)F)nc2n1` [Example 285, 2-(4-cyclopropyl-2,6-dimethylphenyl)-6-(2,2-difluoroethoxy)-2,5-dihydro-4H-pyrazolo[3,4-d]pyrimidin-4-one], the inhibition at 6 µM in assay [1] turned out to be 100%. In assay [2] (Homo sapiens), this compound yielded a 50% inhibitory concentration (IC50) above 30 µM.
